Data on three compounds can be found in ChEMBL document CHEMBL1938343, “Lead optimisation of selective non-zinc binding inhibitors of MMP13. Part 2” (Bioorg Med Chem Lett, 2012).

Values after ≈ are worked out from the molar mass of the structure shown.

The nature of data set [1]: Volume of distribution at steady state in rat at 2 mg/kg, iv. Format: ADME, organism-based. Details: dose 2 mg/kg, route intravenous. Conditions: in vivo, read-out: Vdss.
Data set [2] has as its target 72 kDa type IV collagenase (Homo sapiens, UniProt P08253). The data set can be described thus: Inhibition of MMP2 using Mca-Pro-cyclohexyl-Ala-Gly-Nva-His-Ala- Dap(Dnp)-NH2 as substrate by fluorometric analysis. Conditions: read-out: pIC50 (converted).
For data set [3], the target named is Matrix metalloproteinase-9 (Homo sapiens, UniProt P14780). The data set can be described thus: Inhibition of MMP9 using Mca-Pro-cyclohexyl-Ala-Gly-Nva-His-Ala- Dap(Dnp)-NH2 as substrate by fluorometric analysis.
The nature of data set [4]: Fraction unbound in human. Format: ADME, organism-based. Conditions: in vivo.
The nature of data set [5]: Intrinsic clearance in Sprague-Dawley rat hepatocytes assessed per 10^6 cells. The data set is classed as ADME, cell-based, Hepatocyte. Conditions: Sprague-Dawley, read-out: CLH.
Data set [6] is described as follows: Clearance in rat at 2 mg/kg, iv. The data set is classed as ADME, organism-based. Also on record: dose 2 mg/kg, route intravenous. Conditions: in vivo.
Data set [7] in a line: Intrinsic clearance in human microsomes. The data set is classed as ADME, Microsome.
The nature of data set [8]: Apparent permeability across basolateral to apical side in human Caco2 cells at 10 uM. The data set is classed as ADME, cell-based. Conditions: Caco-2. For orientation: Passage across Caco-2 layers is used to estimate intestinal permeability.
The next data set addresses Cytochrome P450 2D6 (Homo sapiens, UniProt P10635). Description: Inhibition of CYP2D6. Format: ADME. Conditions: read-out: pIC50 (converted).
Data set [9] concerns the target Matrix metalloproteinase-14 (Homo sapiens, UniProt P50281). The data set can be described thus: Inhibition of MMP14 using Mca-Pro-cyclohexyl-Ala-Gly-Nva-His-Ala- Dap(Dnp)-NH2 as substrate by fluorometric analysis.
Data set [10] in a line: Half life in rat at 2 mg/kg, iv. Format: ADME, organism-based. Details: dose 2 mg/kg, route intravenous. Conditions: in vivo.
Another data set addresses Collagenase 3 (Homo sapiens, UniProt P45452). Description: Inhibition of recombinant human MMP13 using Mca-Pro-cyclohexyl-Ala-Gly-Nva-His-Ala- Dap(Dnp)-NH2 as substrate by fluorometric analysis. Conditions: read-out: pIC50 (converted).
The target of a further data set is Cytochrome P450 2C9 (Homo sapiens, UniProt P11712). The data set can be described thus: Inhibition of CYP2C9. Format: ADME. Conditions: read-out: pIC50 (converted).
A short description of data set [11]: Lipophilicity, log D of the compound. Conditions: octanol/water.
The nature of data set [12]: (§1) Oral bioavailability in rat. The data set is classed as ADME, organism-based. Conditions: in vivo.
The target of another data set is T1, Cytochrome P450 1A2 (Homo sapiens, UniProt P05177).
T1 sequence (P05177 whole entry): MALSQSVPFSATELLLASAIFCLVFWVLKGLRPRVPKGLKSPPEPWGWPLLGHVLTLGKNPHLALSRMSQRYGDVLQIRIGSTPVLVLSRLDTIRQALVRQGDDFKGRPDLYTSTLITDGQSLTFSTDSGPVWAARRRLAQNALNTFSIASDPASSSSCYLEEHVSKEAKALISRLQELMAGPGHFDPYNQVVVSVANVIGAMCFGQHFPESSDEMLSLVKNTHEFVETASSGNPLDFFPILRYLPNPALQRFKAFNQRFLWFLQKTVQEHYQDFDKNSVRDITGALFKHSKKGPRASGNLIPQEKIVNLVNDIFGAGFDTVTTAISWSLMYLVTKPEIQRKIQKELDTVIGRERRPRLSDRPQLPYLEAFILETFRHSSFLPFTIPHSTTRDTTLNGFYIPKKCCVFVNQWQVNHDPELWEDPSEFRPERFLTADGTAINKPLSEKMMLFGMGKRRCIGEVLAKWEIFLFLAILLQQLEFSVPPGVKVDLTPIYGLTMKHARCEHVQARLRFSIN
The data set can be described thus: Inhibition of CYP1A2. Format: ADME.

The nature of data set [13]: Fraction unbound in rat. The data set is classed as ADME, organism-based. Conditions: in vivo.
The nature of data set [14]: Apparent permeability across apical to basolateral side in human Caco2 cells at 10 uM. The data set is classed as ADME, cell-based. Conditions: Caco-2.
Data set [15] has as its target Macrophage metalloelastase (Homo sapiens, UniProt P39900). Description: Inhibition of MMP12 using Mca-Pro-cyclohexyl-Ala-Gly-Nva-His-Ala- Dap(Dnp)-NH2 as substrate by fluorometric analysis.
Another data set has as its target Cytochrome P450 2C19 (Homo sapiens, UniProt P33261). Description: Inhibition of CYP2C19. Format: ADME. Conditions: read-out: pIC50 (converted).
A short description of data set [16]: Thermodynamic solubility of the compound. Conditions: Therm_solubility.
The target in the next data set is Cytochrome P450 3A4 (Homo sapiens, UniProt P08684). Description: Inhibition of CYP3A4. Conditions: read-out: pIC50 (converted). The data set is classed as ADME.
The nature of data set [17]: Oral bioavailability in rat at 2 to 50 mg/kg. Format: ADME, organism-based. Conditions: in vivo.
Another data set has as its system Rattus norvegicus. Described as §1. Format: ADME, organism-based. Conditions: in vivo.

Chain of Macrophage metalloelastase (P39900 whole entry): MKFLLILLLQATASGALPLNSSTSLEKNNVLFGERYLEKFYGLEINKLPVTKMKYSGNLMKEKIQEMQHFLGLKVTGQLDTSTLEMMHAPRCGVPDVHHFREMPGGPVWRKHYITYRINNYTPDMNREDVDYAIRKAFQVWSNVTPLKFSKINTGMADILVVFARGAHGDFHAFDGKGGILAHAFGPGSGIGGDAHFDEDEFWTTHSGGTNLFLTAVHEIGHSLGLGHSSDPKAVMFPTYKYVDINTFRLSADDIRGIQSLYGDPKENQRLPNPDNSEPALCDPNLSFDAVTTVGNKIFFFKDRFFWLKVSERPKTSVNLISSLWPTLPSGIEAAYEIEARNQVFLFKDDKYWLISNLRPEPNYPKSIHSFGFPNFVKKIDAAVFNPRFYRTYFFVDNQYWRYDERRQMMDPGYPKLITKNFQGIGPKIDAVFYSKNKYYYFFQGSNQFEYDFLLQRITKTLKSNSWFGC
Chain of 72 kDa type IV collagenase (P08253 whole entry): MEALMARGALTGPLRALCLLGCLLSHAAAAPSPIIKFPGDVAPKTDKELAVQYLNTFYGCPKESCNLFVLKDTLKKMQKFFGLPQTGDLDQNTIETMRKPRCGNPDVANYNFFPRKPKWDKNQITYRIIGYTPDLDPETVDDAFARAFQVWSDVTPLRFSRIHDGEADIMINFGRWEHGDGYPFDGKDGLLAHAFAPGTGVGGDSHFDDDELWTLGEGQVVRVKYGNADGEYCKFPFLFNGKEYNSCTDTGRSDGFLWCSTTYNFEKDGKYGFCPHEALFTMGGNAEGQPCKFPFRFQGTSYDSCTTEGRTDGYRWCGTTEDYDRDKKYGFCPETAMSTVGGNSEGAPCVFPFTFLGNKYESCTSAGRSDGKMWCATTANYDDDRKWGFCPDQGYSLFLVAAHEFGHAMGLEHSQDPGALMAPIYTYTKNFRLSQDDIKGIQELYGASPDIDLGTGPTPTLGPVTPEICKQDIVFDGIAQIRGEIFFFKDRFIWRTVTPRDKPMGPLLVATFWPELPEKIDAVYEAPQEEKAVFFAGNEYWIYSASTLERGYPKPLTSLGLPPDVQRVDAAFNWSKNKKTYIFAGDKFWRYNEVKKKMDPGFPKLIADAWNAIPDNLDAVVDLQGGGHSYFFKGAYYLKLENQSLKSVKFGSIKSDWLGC
Chain of Matrix metalloproteinase-9 (P14780 whole entry): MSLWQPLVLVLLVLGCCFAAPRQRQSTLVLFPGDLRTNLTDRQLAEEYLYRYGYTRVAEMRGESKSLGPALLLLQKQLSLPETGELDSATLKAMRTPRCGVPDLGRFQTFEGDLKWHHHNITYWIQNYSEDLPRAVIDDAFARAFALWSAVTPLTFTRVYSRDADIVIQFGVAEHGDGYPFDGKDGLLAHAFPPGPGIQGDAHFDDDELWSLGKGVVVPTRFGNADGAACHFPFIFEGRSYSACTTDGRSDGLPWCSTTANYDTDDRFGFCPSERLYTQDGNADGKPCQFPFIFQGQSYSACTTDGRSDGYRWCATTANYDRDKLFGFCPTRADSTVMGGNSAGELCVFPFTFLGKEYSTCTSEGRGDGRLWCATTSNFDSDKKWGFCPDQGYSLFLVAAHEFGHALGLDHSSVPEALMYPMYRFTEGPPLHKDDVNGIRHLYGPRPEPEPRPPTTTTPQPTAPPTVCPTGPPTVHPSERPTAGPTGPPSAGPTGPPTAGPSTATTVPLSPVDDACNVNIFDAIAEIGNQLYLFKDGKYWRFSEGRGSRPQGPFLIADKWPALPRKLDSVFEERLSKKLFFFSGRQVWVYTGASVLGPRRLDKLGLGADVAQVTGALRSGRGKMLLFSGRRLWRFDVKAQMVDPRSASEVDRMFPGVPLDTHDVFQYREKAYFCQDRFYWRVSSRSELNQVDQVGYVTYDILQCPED
Chain of Cytochrome P450 2C19 (P33261 whole entry): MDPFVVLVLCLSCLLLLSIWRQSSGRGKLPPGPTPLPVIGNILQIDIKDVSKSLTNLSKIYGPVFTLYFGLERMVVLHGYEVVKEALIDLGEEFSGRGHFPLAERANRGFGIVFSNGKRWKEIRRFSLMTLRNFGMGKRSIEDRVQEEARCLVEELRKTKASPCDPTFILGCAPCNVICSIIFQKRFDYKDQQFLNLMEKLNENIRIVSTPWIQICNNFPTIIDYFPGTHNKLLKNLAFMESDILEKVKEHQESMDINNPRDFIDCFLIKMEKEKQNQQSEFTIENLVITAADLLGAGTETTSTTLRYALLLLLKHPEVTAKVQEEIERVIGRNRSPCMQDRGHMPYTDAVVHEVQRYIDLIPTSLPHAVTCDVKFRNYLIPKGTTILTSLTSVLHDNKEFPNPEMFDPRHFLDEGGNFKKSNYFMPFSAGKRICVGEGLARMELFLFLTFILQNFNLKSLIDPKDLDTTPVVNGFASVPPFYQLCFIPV
Chain of Cytochrome P450 2D6 (P10635 whole entry): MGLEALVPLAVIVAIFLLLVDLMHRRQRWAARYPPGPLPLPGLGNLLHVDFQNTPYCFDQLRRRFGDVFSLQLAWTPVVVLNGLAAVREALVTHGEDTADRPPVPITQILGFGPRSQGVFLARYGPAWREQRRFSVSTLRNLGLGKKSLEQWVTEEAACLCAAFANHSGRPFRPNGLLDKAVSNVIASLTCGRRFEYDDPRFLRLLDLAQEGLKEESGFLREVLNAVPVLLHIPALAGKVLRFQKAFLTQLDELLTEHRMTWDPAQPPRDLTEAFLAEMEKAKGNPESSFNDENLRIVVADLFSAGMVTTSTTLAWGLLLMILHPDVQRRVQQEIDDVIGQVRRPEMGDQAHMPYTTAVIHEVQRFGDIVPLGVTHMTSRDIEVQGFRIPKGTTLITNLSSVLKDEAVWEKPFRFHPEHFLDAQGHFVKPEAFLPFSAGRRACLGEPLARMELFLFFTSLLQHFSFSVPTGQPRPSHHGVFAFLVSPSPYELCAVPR
Chain of Cytochrome P450 2C9 (P11712 whole entry): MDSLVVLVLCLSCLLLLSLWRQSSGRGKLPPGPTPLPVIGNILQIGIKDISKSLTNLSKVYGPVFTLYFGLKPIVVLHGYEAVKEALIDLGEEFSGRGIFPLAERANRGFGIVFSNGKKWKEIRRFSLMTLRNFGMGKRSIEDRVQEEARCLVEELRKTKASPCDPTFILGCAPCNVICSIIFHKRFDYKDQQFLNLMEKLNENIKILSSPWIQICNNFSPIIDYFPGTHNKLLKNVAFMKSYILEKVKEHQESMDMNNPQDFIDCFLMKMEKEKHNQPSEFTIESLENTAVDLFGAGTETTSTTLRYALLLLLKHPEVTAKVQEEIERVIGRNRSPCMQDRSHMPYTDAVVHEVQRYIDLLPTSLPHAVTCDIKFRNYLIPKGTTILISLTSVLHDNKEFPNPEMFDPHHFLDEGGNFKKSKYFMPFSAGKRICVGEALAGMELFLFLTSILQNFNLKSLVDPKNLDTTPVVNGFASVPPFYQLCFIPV
Chain of Cytochrome P450 3A4 (P08684 whole entry): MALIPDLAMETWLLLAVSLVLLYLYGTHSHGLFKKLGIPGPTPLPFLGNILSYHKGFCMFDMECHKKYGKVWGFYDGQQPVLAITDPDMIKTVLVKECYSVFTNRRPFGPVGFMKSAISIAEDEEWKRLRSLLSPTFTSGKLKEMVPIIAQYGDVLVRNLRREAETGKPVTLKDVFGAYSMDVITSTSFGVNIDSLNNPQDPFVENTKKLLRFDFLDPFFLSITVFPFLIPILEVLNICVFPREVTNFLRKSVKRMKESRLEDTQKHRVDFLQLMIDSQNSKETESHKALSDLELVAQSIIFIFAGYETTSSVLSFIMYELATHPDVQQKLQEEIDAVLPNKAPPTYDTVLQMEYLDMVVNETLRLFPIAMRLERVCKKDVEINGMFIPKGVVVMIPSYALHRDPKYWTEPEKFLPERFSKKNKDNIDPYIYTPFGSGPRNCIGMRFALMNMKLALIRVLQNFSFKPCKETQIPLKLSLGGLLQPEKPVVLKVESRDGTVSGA

Usually fraction unbound stands for the share of the substance not bound to proteins or other matrix. Low values mean extensive binding, high ones weak binding. For orientation: clearance means the volume of plasma or blood freed of the substance per unit of time. A lower clearance goes with a low capacity for elimination. What is called microsomal CLint is a measure of how fast metabolising enzymes remove a compound, apart from limits set by blood flow. Read a high microsomal CLint as faster metabolism. Broadly, the Papp B→A is the apparent permeability from the basolateral to the apical side of a cell layer. Broadly, the half-life is the time in which the quantity being followed falls by half. A higher half-life goes with slow decline. One may read the logD as the decadic logarithm of the distribution of all forms, ionised or not, between an organic phase and buffer at a given pH. Read a low logD as a more hydrophilic compound. Usually bioavailability stands for the share of a dose that reaches the circulation, judged against a reference dose that is usually intravenous. A lower bioavailability goes with poor availability. As usually defined, the Papp A→B is the apparent permeability from the apical to the basolateral side of a cell layer. In general, thermodynamic solubility refers to the concentration in solution at equilibrium with solid. As to `CNC(=O)c1ccc(Oc2ccc(C#C[C@]3(O)CN4CCC3CC4)cc2)cc1`, in data set [1], the Vd was determined as 2.4 L/kg. The IC50 was 20 µM in data set [2]; over 100 µM in [3] (read-out: pIC50 (converted)); over 10 µM at Cytochrome P450 2D6; over 100 µM in data set [9] (read-out: pIC50 (converted)); 0.2 µM at Collagenase 3; over 10 µM on Cytochrome P450 2C9. In addition, the IC50 against Cytochrome P450 1A2 was over 10 µM; in [15] (read-out: pIC50 (converted)), over 100 µM; at Cytochrome P450 2C19 it was over 10 µM; on Cytochrome P450 3A4, over 10 µM. For the same compound, the fraction unbound in [4] is 0.24; in data set [13], 0.26. The hepatocyte CLint in data set [5] stood at 2.7 µL/min/1e6 cells. In addition, in data set [6], the clearance was 16 mL/min/kg. The compound also displayed a microsomal CLint in data set [7] of 3.9 µL/min/mg. For the same compound, in data set [8], the Papp B→A at 10 µM is 34 ×10⁻⁶ cm/s. The half-life in [10] is 1.9 h. For the same compound, in data set [11], the logD turned out to be 2. For the same compound, the bioavailability in data set [12] came out at 54%. Moreover, the Papp A→B at 10 µM in [14] amounted to 23 ×10⁻⁶ cm/s. Moreover, the solubility (thermodynamic) in [16] was over 1600 µM.

As to `O=C(NCc1ccncn1)c1ccc(Oc2ccc(C#C[C@]3(O)CN4CCC3CC4)cc2)cc1`, the bioavailability in data set [17] worked out at 2%. Further, in data set [5], the hepatocyte CLint came out at 3.2 µL/min/1e6 cells. Moreover, the Papp B→A at 10 µM in [8] worked out at 33 ×10⁻⁶ cm/s. In data set [11], this compound showed a logD of 1.8. The Papp A→B at 10 µM in data set [14] amounted to 6.7 ×10⁻⁶ cm/s.

Broadly, the pIC50 is the negative decadic logarithm of the IC50, by convention in mol/L. Read a low pIC50 as a large IC50. As to `O=C(NC1CCCS(=O)(=O)C1)c1ccc(Oc2ccc(C#C[C@]3(O)CN4CCC3CC4)cc2)cc1` (single isomer, unassigned; diastereomer 2), the values for the IC50 (in [2]; on Collagenase 3) were 2.51 µM and 0.01 µM, respectively. Besides, the pIC50 in data set [3], in [9] and in data set [15] was under 5 each time. In [5], the hepatocyte CLint came to 3.4 µL/min/1e6 cells. The compound further displayed a microsomal CLint in data set [7] of under 2 µL/min/mg. The same compound showed a F in the data set with Rattus norvegicus of 0%. Moreover, the solubility (thermodynamic) in [16] was 120 µM (≈ 59.4 µg/mL).
